Assay results taken from the supplement of paper PMC13207355.
Where a name gives a salt, the structure may show the parent alone.

Columns and labels:
Details in all cases: exposure time: 72 h
E57 [1] = patient-derived glioblastoma stem cells of mesenchymal subtype; experiment: surviving fraction (nuclei count normalised to DMSO); higher = more cells surviving (less toxic)
E28 [2] = patient-derived glioblastoma stem cells of classical subtype; experiment: as above
E31 [3] = patient-derived glioblastoma stem cells of proneural subtype; experiment: as above
FT3469 [4] = normal neural stem cell line; experiment: as above
E21 [5] = patient-derived glioblastoma stem cells of mesenchymal subtype; experiment: as above
E34 [6] = patient-derived glioblastoma stem cells of proneural subtype; experiment: as above
E13 [7] = patient-derived glioblastoma stem cells of classical subtype; experiment: as above
E57 [8] = experiment: phenotypic distance (Euclidean, principal components) from DMSO controls (arbitrary units); higher = stronger morphological change
E28 [9] = experiment: as above
E31 [10] = experiment: as above
FT3469 [11] = experiment: as above
E21 [12] = experiment: as above
E34 [13] = experiment: as above
E13 [14] = experiment: as above
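For phenotypic distance (Euclidean, principal components) from DMSO controls in this document: cell Painting imaging in 384-well plates, CellProfiler features reduced to at least 20 principal components, Euclidean distance versus same-plate DMSO vehicle wells (0.1% v/v), median over six images per well.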
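For surviving fraction (nuclei count normalised to DMSO) in this document: nuclei counted by high-content imaging of Hoechst-stained cells in laminin-coated 384-well plates, relative to 0.1% DMSO vehicle wells, with staurosporine as cell-death control.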

CCCCCCC[N+](CC)(CC)CCCCc1ccc(Cl)cc1 [Clofilium tosylate]
Details | phenotypic distance | surviving fraction
E13 [7], 4.1 nM | – | 1.17
E13 [7], 12.3 nM | – | 1.06
E13 [7], 37 nM | – | 0.817
E13 [7], 111.1 nM | – | 0.945
E13 [7], 333.3 nM | – | 0.896
E13 [7], 1000 nM | – | 0.937
E13 [7], 3000 nM | – | 0.609
E13 [14], 4.1 nM | 0.802 | –
E13 [14], 12.3 nM | 1.25 | –
E13 [14], 37 nM | 0.557 | –
E13 [14], 111.1 nM | 0.985 | –
E13 [14], 333.3 nM | 0.488 | –
E13 [14], 1000 nM | 0.667 | –
E13 [14], 3000 nM | 1.83 | –
E21 [5], 4.1 nM | – | 1
E21 [5], 12.3 nM | – | 1.11
E21 [5], 37 nM | – | 1.1
E21 [5], 111.1 nM | – | 1
E21 [5], 333.3 nM | – | 0.976
E21 [5], 1000 nM | – | 1.12
E21 [5], 3000 nM | – | 0.609
E21 [12], 4.1 nM | 0.676 | –
E21 [12], 12.3 nM | 1 | –
E21 [12], 37 nM | 1.04 | –
E21 [12], 111.1 nM | 1.16 | –
E21 [12], 333.3 nM | 1.29 | –
E21 [12], 1000 nM | 1.68 | –
E21 [12], 3000 nM | 3.13 | –
E28 [2], 4.1 nM | – | 0.984
E28 [2], 12.3 nM | – | 1.28
E28 [2], 37 nM | – | 0.96
E28 [2], 111.1 nM | – | 1.18
E28 [2], 333.3 nM | – | 1.16
E28 [2], 1000 nM | – | 1.05
E28 [2], 3000 nM | – | 0.485
E28 [9], 4.1 nM | 0.664 | –
E28 [9], 12.3 nM | 1.16 | –
E28 [9], 37 nM | 0.464 | –
E28 [9], 111.1 nM | 0.925 | –
E28 [9], 333.3 nM | 0.998 | –
E28 [9], 1000 nM | 1.17 | –
E28 [9], 3000 nM | 1.84 | –
E31 [3], 4.1 nM | – | 0.763
E31 [3], 12.3 nM | – | 1.03
E31 [3], 37 nM | – | 1.04
E31 [3], 111.1 nM | – | 0.913
E31 [3], 333.3 nM | – | 1.01
E31 [3], 1000 nM | – | 0.95
E31 [3], 3000 nM | – | 0.452
E31 [10], 4.1 nM | 0.758 | –
E31 [10], 12.3 nM | 0.742 | –
E31 [10], 37 nM | 0.443 | –
E31 [10], 111.1 nM | 0.89 | –
E31 [10], 333.3 nM | 0.62 | –
E31 [10], 1000 nM | 1.43 | –
E31 [10], 3000 nM | 2.44 | –
E34 [6], 4.1 nM | – | 1.09
E34 [6], 12.3 nM | – | 1.07
E34 [6], 37 nM | – | 0.961
E34 [6], 111.1 nM | – | 0.954
E34 [6], 333.3 nM | – | 0.998
E34 [6], 1000 nM | – | 1.02
E34 [6], 3000 nM | – | 0.813
E34 [13], 4.1 nM | 1 | –
E34 [13], 12.3 nM | 1.05 | –
E34 [13], 37 nM | 0.94 | –
E34 [13], 111.1 nM | 1.17 | –
E34 [13], 333.3 nM | 1.13 | –
E34 [13], 1000 nM | 1.33 | –
E34 [13], 3000 nM | 1.86 | –
E57 [1], 4.1 nM | – | 1.1
E57 [1], 12.3 nM | – | 0.992
E57 [1], 37 nM | – | 1.14
E57 [1], 111.1 nM | – | 0.977
E57 [1], 333.3 nM | – | 1.02
E57 [1], 1000 nM | – | 0.959
E57 [1], 3000 nM | – | 0.866
E57 [8], 4.1 nM | 0.657 | –
E57 [8], 12.3 nM | 0.645 | –
E57 [8], 37 nM | 0.931 | –
E57 [8], 111.1 nM | 0.93 | –
E57 [8], 333.3 nM | 0.68 | –
E57 [8], 1000 nM | 0.764 | –
E57 [8], 3000 nM | 1.73 | –
FT3469 [4], 4.1 nM | – | 1.12
FT3469 [4], 12.3 nM | – | 1.26
FT3469 [4], 37 nM | – | 0.944
FT3469 [4], 111.1 nM | – | 1.13
FT3469 [4], 333.3 nM | – | 1.13
FT3469 [4], 1000 nM | – | 1.07
FT3469 [4], 3000 nM | – | 0.838
FT3469 [11], 4.1 nM | 0.575 | –
FT3469 [11], 12.3 nM | 1.1 | –
FT3469 [11], 37 nM | 0.53 | –
FT3469 [11], 111.1 nM | 1.01 | –
FT3469 [11], 333.3 nM | 0.917 | –
FT3469 [11], 1000 nM | 1.08 | –
FT3469 [11], 3000 nM | 1.3 | –
